From US20110195930A1, “PYRIDINE DERIVATIVE OR ITS SALT, PESTICIDE CONTAINING IT AND PROCESS FOR ITS PRODUCTION” (Ishihara Sangyo Kaisha, Ltd., priority 2008, published 2011)

Tests used:
[1] = system: Brown Planthopper (Nilaparvata lugens); experiment: Test on controlling effects against brown planthopper (rice seedling dip); format: in vivo; settings: rice seedling dipped about 10 seconds, second-third instar nymphs, 5th day after the release, 25° C.
From the text: Test on Controlling Effects Against Brown Planthopper (Nilaparvata lugens)
Rice seedling was dipped for about 10 seconds in an insecticidal solution adjusted to bring the concentration of the compound of the present invention to 200 ppm and then dried in air, its root was wrapped with a wet absorbent cotton, and the seedling was put into a test tube. Then, 10 second-third instar nymphs of Brown Planthopper were released therein, and the test tube was covered with a gauze and left in a constant temperature chamber at 25° C. with lightening. On the 5th day after the release, dead nymphs were counted, and the mortality was calculated by the following equation.
Mortality (%)=(number of dead insects/number of released insects)×100

[2] = system: Green Peach Aphid (Myzus persicae); experiment: Test on controlling effects against green peach aphid (leaf dip); format: in vivo; settings: foliar, 120 h, Japanese radish leaf dipped about 10 seconds, first instar nymphs, 5 days after the treatment, 25° C.
From the text: Test on Controlling Effects Against Green Peach Aphid (Myzus persicae)
A Japanese radish leaf was inserted in a test tube in which water was put, and about 20 first instar nymphs of green peach aphid were released on the leaf. On the next day, the number of nymphs parasitic on the leaf was counted, and then the leaf was dipped for about 10 seconds in an insecticidal solution adjusted to bring the concentration of the compound of the present invention to 200 ppm, dried in air and left in a constant temperature chamber at 25° C. with lightening. Dead nymphs were counted 5 days after the treatment, and the mortality was calculated by the following equation. The insects dropped from the leaf or presented toxic symptom were counted as dead insects.
Mortality (%)=(1−(number of survived insects/number of treated insects))×100

| SMILES | mortality at 200 ppm [1] | mortality at 200 ppm [2] |
| --- | --- | --- |
| CCON=C(c1cccc(C)n1)n1cncn1 [compound 23] | ≥ 90% |  |
| CCON=C(c1ncccc1C(F)(F)F)n1cncn1 [compound 25] | ≥ 90% |  |
| CCON=C(c1cc(C(F)(F)F)ccn1)n1cncn1 [compound 26] | ≥ 90% |  |
| CC(C)ON=C(c1ncc(C(F)(F)F)cc1Cl)n1cncn1 [Compound No. 13, [3-chloro-5-(trifluoromethyl)pyridin-2-yl](1H-1,2,4-triazol-1-yl)methanone O-isopropyl oxime] | ≥ 90% |  |
| CCON=C(c1cccc(C(F)(F)F)n1)n1cncn1 [compound 83] | ≥ 90% |  |
| CCON=C(c1ncc(C(F)(F)F)cc1Cl)n1ccnc1 [compound 11] | ≥ 90% | ≥ 90% |
| FC(F)(F)c1cnc(C(=NOCC2CC2)n2cncn2)c(Cl)c1 [compound 32] | ≥ 90% | ≥ 90% |
| CCON=C(c1ncc(C(F)(F)F)cc1Cl)n1cnnc1 [compound 12] | ≥ 90% |  |
| CCON=C(c1ccc(C(F)(F)F)cn1)n1cncn1 [compound 24] | ≥ 90% |  |
| CCON=C(c1nc(C(F)(F)F)ccc1Cl)n1cncn1 [compound 84] | ≥ 90% |  |
| CCON=C(c1ncc(C(F)(F)F)cc1Br)n1cncn1 [compound 31] | ≥ 90% | ≥ 90% |
| CCON=C(c1ncc(C(F)(F)F)cc1Cl)n1cncn1 [Compound No. 10, [3-chloro-5-(trifluoromethyl)pyridin-2-yl](1H-1,2,4-triazol-1-yl)methanone O-oxime] | ≥ 90% | ≥ 90% |
| CON=C(c1ncc(C(F)(F)F)cc1Cl)n1cncn1 [compound 14] | ≥ 90% | ≥ 90% |
| CCON=C(c1ncc(C(F)(F)F)cc1C)n1cncn1 [compound 33, [3-methyl-5-(trifluoromethyl)pyridin-2-yl](1H-1,2,4-triazol-1-yl)methanone O-ethyl oxime] | ≥ 90% | ≥ 90% |
